Results taken from patent publication US10738062B2, “Chromane-substituted tetracyclic compounds and uses thereof for the treatment of viral diseases” (Merck Sharp & Dohme Corp., priority 2016, dated 2020).
pEC50: −log10 of the molar value.

Tests used:
Parameters in all cases: species or system Hepatitis C virus
HCV replicon 2B = assay: Cell-based HCV replicon assay (Replicon Assay A), replicon 2B; conditions: read-out: EC50 replicon 2B; Replicon Assay A; replicon RNA by real time PCR, day 3
Outline: (§1)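 Replicon cells were seeded at 2000/well with compound, 10 serial dilutions starting at 333.3 nM to 1.667 nM, in 0.5% DMSO and 5% FBS, then harvested on day 3. Replicon RNA was measured by multiplex TaqMan RT-PCR with cyclophilin as endogenous control. EC50 is the concentration raising Ct by 1 over projected baseline.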

HCV replicon 1A Y93H = assay: Cell-based HCV replicon assay (Replicon Assay A), replicon 1AY93H; conditions: read-out: EC50 replicon 1A Y93H; Replicon Assay A; replicon RNA by real time PCR, day 3
Outline: as §1

HCV replicon 1A = assay: Cell-based HCV replicon assay (Replicon Assay A), replicon 1A; conditions: replicon RNA by real time PCR, day 3
Outline: as §1

HCV replicon 1B = assay: Cell-based HCV replicon assay (Replicon Assay B), replicon 1B; conditions: replicon RNA by real-time PCR, 3 days
Method: In an alternate assay (“Replicon Assay B”), 1000 cells were seeded per well in a 384-well collagen coated black plate from Greiner bio-one (Cat #781946) in 5% FBS. Inhibitors of this invention were added at 24 h post-seeding, and the plates were incubated for 3 days. Cells were subsequently lysed with Qiagen lysis buffer (Cat #1062731) to extract the RNA. HCV replicon RNA level was measured by real-time PCR using the RNA-to-CT kit from Applied Biosystem (Cat #4392656) and genotype-specific primers and probes. The amplicon was located within NS5B. […] (SEQ. ID NO. 2); the probe sequence was FAM-labeled […] (SEQ. ID NO. 3).
The real-time RT-PCR reactions were run on ABI PRISM 7900HT or Viia7 Sequence Detection System using the following program: 48° C. for 30 minutes, 95° C. for 10 minutes, 40 cycles of 95° C. for 15 sec, 60° C. for 1 minutes.
EC50 data for replicons 1A, 1AY93H and 2B were obtained using Replicon Assay A and EC50 data for replicon 1B was obtained using Replicon Assay B.

SMILES	pEC50 (HCV replicon 2B)	pEC50 (HCV replicon 1A Y93H)	pEC50 (HCV replicon 1A)	pEC50 (HCV replicon 1B)	pEC50 (HCV replicon 1B; Hepatitis C virus, 72 h)	pEC50 (HCV replicon 1A; Hepatitis C virus, 72 h)
COC(=O)NC(C(=O)N1CCC[C@H]1c1ncc(-c2cc(F)c3c(c2)OC(c2ccc4c(c2)OCCC4)n2c-3cc3cc(-c4cnc([C@@H]5CCCN5C(=O)[C@@H](NC(=O)OC)C5CCOCC5)[nH]4)ccc32)[nH]1)C(C)(C)F (single isomer, unassigned) [Compound 90]	9.80	10.33	11.77	11.49		
COC(=O)N[C@H](C(=O)N1CCC[C@H]1c1ncc(-c2cc(F)c3c(c2)OC(c2ccc4c(c2)OCCC4)n2c-3c(F)c3cc(-c4cnc([C@@H]5CCCN5C(=O)[C@@H](NC(=O)OC)C5CCOCC5)[nH]4)ccc32)[nH]1)C(C)C (single isomer, unassigned) [Compound 92]	11.22	11.22	11.82		11.62	
COC(=O)NC(C(=O)N1CCC[C@H]1c1ncc(-c2ccc3c(c2)cc2n3C(c3ccc4c(c3)OCCC4)Oc3cc(-c4cnc([C@@H]5CCCN5C(=O)[C@@H](NC(=O)OC)C(C)C)[nH]4)cc(F)c3-2)[nH]1)C1CCO[C@H](C)C1 (single isomer, unassigned) [Compound 93]	9.95	9.17			11.68	11.77
COC(=O)NC(C(=O)N1CCC[C@H]1c1ncc(-c2ccc3c(c2)cc2n3C(c3ccc4c(c3)OCCC4)Oc3cc(-c4cnc([C@@H]5CCCN5C(=O)[C@@H](NC(=O)OC)C(C)C)[nH]4)cc(F)c3-2)[nH]1)C1CCO[C@H](C)C1 (single isomer, unassigned) [Compound 94]	11.40	11.22	11.64	11.48		
